{
  "source": "patent US20140081017A1",
  "about": "“Histone Deacetylase Inhibitors for Enhancing Activity of Antifungal Agents” (METHYLGENE INC., priority 2012, published 2014)",
  "key": {"Candida albicans": {"system": "Candida albicans", "assay": "Minimal Inhibitory Concentration (MIC) assay, broth microdilution per CLSI;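 as to all read-outs here: two read times 24 hr and 48 hr of incubation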", "type": "cell-based", "conditions": "Candida albicans, read-out: Minimum Inhibitory Concentrations against Yeast Isolates, Candida albicans", "in_short": "(§1)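 CLSI broth microdilution in RPMI/0.165 M MOPS pH 7.0; 2-fold DMSO dilution series; inoculum 0.5 McFarland diluted 1:100; 35° C, ~24-48 hr; MIC = lowest conc. with no visible growth, read from plate bottom.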"}, "Candida glabrata": {"system": "Candida glabrata", "assay": "Minimal Inhibitory Concentration (MIC) assay, broth microdilution per CLSI", "type": "cell-based", "conditions": "Nakaseomyces glabratus, read-out: Minimum Inhibitory Concentrations against Yeast Isolates, Candida glabrata", "in_short": "as §1"}, "Candida parapsilosis": {"system": "Candida parapsilosis", "assay": "Minimal Inhibitory Concentration (MIC) assay, broth microdilution per CLSI", "type": "cell-based", "conditions": "Lodderomyces parapsilosis, read-out: Minimum Inhibitory Concentrations against Yeast Isolates, Candida parapsilosis", "in_short": "as §1"}, "C. glabrata": {"system": "C. glabrata", "assay": "Checkerboard FIC assay in combination with fluconazole (MIC alone and in combination, FICI)", "type": "cell-based, Candida glabrata", "conditions": "for FICI of combination resulting in fluconazole MIC of: 2 ug/mL / FICI of combination resulting in fluconazole MIC of: 4 ug/mL / FICI of combination resulting in fluconazole MIC of: 8 ug/mL: FICI calculated using a fluconazole MIC of 16 μg/mL; for FICI of combination resulting in fluconazole MIC of: 2 ug/mL (value in parenthesis) / FICI of combination resulting in fluconazole MIC of: 4 ug/mL (value in parenthesis) / FICI of combination resulting in fluconazole MIC of: 8 ug/mL (value in parenthesis): FICI using a fluconazole MIC of 128 μg/mL; for MIC: Nakaseomyces glabratus; for Multiple of compound MIC to synergize fluconazole MIC to 2 ug/mL / Multiple of compound MIC to synergize fluconazole MIC to 4 ug/mL / Multiple of compound MIC to synergize fluconazole MIC to 8 ug/mL: concentration in combination as multiple of the compound's MIC alone; for Multiple of compound MIC to synergize fluconazole MIC to 2 ug/mL: fluconazole MIC 2 ug/mL; for Multiple of compound MIC to synergize fluconazole MIC to 4 ug/mL: fluconazole MIC 4 ug/mL; for Multiple of compound MIC to synergize fluconazole MIC to 8 ug/mL: fluconazole MIC 8 ug/mL; for Concentration of Methylgene compound to synergize fluconazole MIC to 2 ug/mL / Concentration of Methylgene compound to synergize fluconazole MIC to 4 ug/mL / Concentration of Methylgene compound to synergize fluconazole MIC to 8 ug/mL: in combination with fluconazole; for Concentration of Methylgene compound to synergize fluconazole MIC to 2 ug/mL: fluconazole MIC lowered to 2 ug/mL; for Concentration of Methylgene compound to synergize fluconazole MIC to 4 ug/mL: fluconazole MIC lowered to 4 ug/mL; for Concentration of Methylgene compound to synergize fluconazole MIC to 8 ug/mL: fluconazole MIC lowered to 8 ug/mL", "in_short": "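C. glabrata was tested by CLSI broth microdilution checkerboard, crossing 2-fold dilutions of compound with 2-fold dilutions of fluconazole. The medium was RPMI with 0.165 M MOPS at pH 7.0, inoculated from a 0.5 McFarland suspension diluted 1:100, then incubated about 48 h at 35 °C. Single-agent MICs gave the FIC and FICI values.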"}, "[1]": {"conditions": "24 hr reading (first value of cell 24 hr/48 hr)"}, "[2]": {"conditions": "48 hr reading (second value of cell 24 hr/48 hr)"}, "[3]": {"conditions": "MIC of the example compound alone against C. glabrata in the checkerboard assay, approximately 48 hr, read-out: Methylgene MIC"}, "[4]": {"conditions": "test compound alone, C. glabrata, approx. 48 hr at 35° C., read-out: Compound MIC"}},
  "note": "Where two headings read alike, the source gives them in different places.",
  "data": [
    {"compound": "O=C(Cc1ccc(CCCCc2ccc(C(=O)N3CCN(C/C=C/c4ccccc4)CC3)cc2)cc1)NO", "note": "[Example 20, (E)-2-(4-(4-(4-(4-cinnamylpiperazine-1-carbonyl)phenyl)butyl)phenyl)-N-hydroxyacetamide]", "values": [
      {"measurement": "MIC", "setting": "Candida albicans; [1]", "result": "> 8", "unit": "µg/mL"},
      {"measurement": "MIC", "setting": "Candida albicans; [2]", "result": "> 8", "unit": "µg/mL"},
      {"measurement": "MIC", "setting": "Candida glabrata; [1]", "result": 2, "unit": "µg/mL"},
      {"measurement": "MIC", "setting": "Candida glabrata; [2]", "result": 2, "unit": "µg/mL"},
      {"measurement": "MIC", "setting": "Candida parapsilosis; [1]", "result": "> 8", "unit": "µg/mL"},
      {"measurement": "MIC", "setting": "Candida parapsilosis; [2]", "result": "> 8", "unit": "µg/mL"},
      {"measurement": "FICI of combination resulting in fluconazole MIC of: 2 ug/mL", "setting": "C. glabrata; C. glabrata", "result": 0.563},
      {"measurement": "FICI of combination resulting in fluconazole MIC of: 4 ug/mL", "setting": "C. glabrata; C. glabrata", "result": 0.375},
      {"measurement": "FICI of combination resulting in fluconazole MIC of: 8 ug/mL", "setting": "C. glabrata; C. glabrata", "result": 0.500},
      {"measurement": "FICI of combination resulting in fluconazole MIC of: 2 ug/mL (value in parenthesis)", "setting": "C. glabrata; C. glabrata", "result": 0.516},
      {"measurement": "FICI of combination resulting in fluconazole MIC of: 4 ug/mL (value in parenthesis)", "setting": "C. glabrata; C. glabrata", "result": 0.281},
      {"measurement": "FICI of combination resulting in fluconazole MIC of: 8 ug/mL (value in parenthesis)", "setting": "C. glabrata; C. glabrata", "result": 0.313},
      {"measurement": "MIC", "setting": "C. glabrata; [3]", "result": 1, "unit": "µg/mL"},
      {"measurement": "MIC", "setting": "C. glabrata; [4]", "result": 1, "unit": "µg/mL"},
      {"measurement": "Multiple of compound MIC to synergize fluconazole MIC to 2 ug/mL", "setting": "C. glabrata", "result": "(½x)"},
      {"measurement": "Multiple of compound MIC to synergize fluconazole MIC to 4 ug/mL", "setting": "C. glabrata", "result": "(¼x)"},
      {"measurement": "Multiple of compound MIC to synergize fluconazole MIC to 8 ug/mL", "setting": "C. glabrata", "result": "(¼x)"},
      {"measurement": "Concentration of Methylgene compound to synergize fluconazole MIC to 2 ug/mL", "setting": "C. glabrata; C. glabrata", "result": 0.5, "unit": "µg/mL"},
      {"measurement": "Concentration of Methylgene compound to synergize fluconazole MIC to 4 ug/mL", "setting": "C. glabrata; C. glabrata", "result": 0.25, "unit": "µg/mL"},
      {"measurement": "Concentration of Methylgene compound to synergize fluconazole MIC to 8 ug/mL", "setting": "C. glabrata; C. glabrata", "result": 0.25, "unit": "µg/mL"}
    ]},
    {"compound": "O=C(Cc1ccc(CCCCc2ccc(C(=O)N3CCN(CCn4ccnc4)CC3)cc2)cc1)NO", "note": "[Example 21, 2-(4-(4-(4-(4-(2-(1H-imidazol-1-yl)ethyl)piperazine-1-carbonyl)phenyl)butyl)phenyl)-N-hydroxyacetamide]", "values": [
      {"measurement": "MIC", "setting": "Candida albicans; [1]", "result": "> 64", "unit": "µg/mL"},
      {"measurement": "MIC", "setting": "Candida albicans; [2]", "result": "> 64", "unit": "µg/mL"},
      {"measurement": "MIC", "setting": "Candida glabrata; [1]", "result": 16, "unit": "µg/mL"},
      {"measurement": "MIC", "setting": "Candida glabrata; [2]", "result": 32, "unit": "µg/mL"},
      {"measurement": "MIC", "setting": "Candida parapsilosis; [1]", "result": "> 64", "unit": "µg/mL"},
      {"measurement": "MIC", "setting": "Candida parapsilosis; [2]", "result": "> 64", "unit": "µg/mL"},
      {"measurement": "FICI of combination resulting in fluconazole MIC of: 2 ug/mL", "setting": "C. glabrata; C. glabrata", "result": 0.313},
      {"measurement": "FICI of combination resulting in fluconazole MIC of: 4 ug/mL", "setting": "C. glabrata; C. glabrata", "result": 0.250},
      {"measurement": "FICI of combination resulting in fluconazole MIC of: 8 ug/mL", "setting": "C. glabrata; C. glabrata", "result": 0.375},
      {"measurement": "FICI of combination resulting in fluconazole MIC of: 2 ug/mL (value in parenthesis)", "setting": "C. glabrata; C. glabrata", "result": 0.266},
      {"measurement": "FICI of combination resulting in fluconazole MIC of: 4 ug/mL (value in parenthesis)", "setting": "C. glabrata; C. glabrata", "result": 0.156},
      {"measurement": "FICI of combination resulting in fluconazole MIC of: 8 ug/mL (value in parenthesis)", "setting": "C. glabrata; C. glabrata", "result": 0.188},
      {"measurement": "MIC", "setting": "C. glabrata; [3]", "result": 16, "unit": "µg/mL"},
      {"measurement": "MIC", "setting": "C. glabrata; [4]", "result": 16, "unit": "µg/mL"},
      {"measurement": "Multiple of compound MIC to synergize fluconazole MIC to 2 ug/mL", "setting": "C. glabrata", "result": "(¼x)"},
      {"measurement": "Multiple of compound MIC to synergize fluconazole MIC to 4 ug/mL", "setting": "C. glabrata", "result": "(⅛X)"},
      {"measurement": "Multiple of compound MIC to synergize fluconazole MIC to 8 ug/mL", "setting": "C. glabrata", "result": "(⅛X)"},
      {"measurement": "Concentration of Methylgene compound to synergize fluconazole MIC to 2 ug/mL", "setting": "C. glabrata; C. glabrata", "result": 4, "unit": "µg/mL"},
      {"measurement": "Concentration of Methylgene compound to synergize fluconazole MIC to 4 ug/mL", "setting": "C. glabrata; C. glabrata", "result": 2, "unit": "µg/mL"},
      {"measurement": "Concentration of Methylgene compound to synergize fluconazole MIC to 8 ug/mL", "setting": "C. glabrata; C. glabrata", "result": 2, "unit": "µg/mL"}
    ]},
    {"compound": "O=C(Cc1ccc(CCCCc2ccc(C(=O)NCCCn3ccnc3)cc2)cc1)NO", "note": "[Example 22, N-(3-(1H-imidazol-1-yl)propyl)-4-(4-(4-(2-(hydroxyamino)-2-oxoethyl)phenyl)butyl)benzamide]", "values": [
      {"measurement": "MIC", "setting": "Candida albicans; [1]", "result": "> 8", "unit": "µg/mL"},
      {"measurement": "MIC", "setting": "Candida albicans; [2]", "result": "> 8", "unit": "µg/mL"},
      {"measurement": "MIC", "setting": "Candida glabrata; [1]", "result": 8, "unit": "µg/mL"},
      {"measurement": "MIC", "setting": "Candida glabrata; [2]", "result": "> 8", "unit": "µg/mL"},
      {"measurement": "MIC", "setting": "Candida parapsilosis; [1]", "result": "> 8", "unit": "µg/mL"},
      {"measurement": "MIC", "setting": "Candida parapsilosis; [2]", "result": "> 8", "unit": "µg/mL"},
      {"measurement": "FICI of combination resulting in fluconazole MIC of: 2 ug/mL", "setting": "C. glabrata; C. glabrata", "result": 0.188},
      {"measurement": "FICI of combination resulting in fluconazole MIC of: 4 ug/mL", "setting": "C. glabrata; C. glabrata", "result": 0.250},
      {"measurement": "FICI of combination resulting in fluconazole MIC of: 8 ug/mL", "setting": "C. glabrata; C. glabrata", "result": 0.313},
      {"measurement": "FICI of combination resulting in fluconazole MIC of: 2 ug/mL (value in parenthesis)", "setting": "C. glabrata; C. glabrata", "result": 0.141},
      {"measurement": "FICI of combination resulting in fluconazole MIC of: 4 ug/mL (value in parenthesis)", "setting": "C. glabrata; C. glabrata", "result": 0.156},
      {"measurement": "FICI of combination resulting in fluconazole MIC of: 8 ug/mL (value in parenthesis)", "setting": "C. glabrata; C. glabrata", "result": 0.125},
      {"measurement": "MIC", "setting": "C. glabrata; [3]", "result": 16, "unit": "µg/mL"},
      {"measurement": "MIC", "setting": "C. glabrata; [4]", "result": 16, "unit": "µg/mL"},
      {"measurement": "Multiple of compound MIC to synergize fluconazole MIC to 2 ug/mL", "setting": "C. glabrata", "result": "(⅛x)"},
      {"measurement": "Multiple of compound MIC to synergize fluconazole MIC to 4 ug/mL", "setting": "C. glabrata", "result": "(⅛x)"},
      {"measurement": "Multiple of compound MIC to synergize fluconazole MIC to 8 ug/mL", "setting": "C. glabrata", "result": "( 1/16x)"},
      {"measurement": "Concentration of Methylgene compound to synergize fluconazole MIC to 2 ug/mL", "setting": "C. glabrata; C. glabrata", "result": 2, "unit": "µg/mL"},
      {"measurement": "Concentration of Methylgene compound to synergize fluconazole MIC to 4 ug/mL", "setting": "C. glabrata; C. glabrata", "result": 2, "unit": "µg/mL"},
      {"measurement": "Concentration of Methylgene compound to synergize fluconazole MIC to 8 ug/mL", "setting": "C. glabrata; C. glabrata", "result": 1, "unit": "µg/mL"}
    ]}
  ]
}
